Measured values from patent publication US12428406B2 (PMV Pharmaceuticals, Inc., priority 2019, dated 2025).

molecular target: T1, p53 Y220C (Homo sapiens, UniProt P04637, Y220C); experiment: In vitro DNA binding activity assay (HTRF / TR-FRET): stabilization of p53 Y220C and increase of its DNA binding activity; format: biochemical; conditions: recombinant His-tagged p53 Y220C DNA binding domain (aa 94-312), biotin-labeled consensus DNA, incubated at 27° C. or 29° C. for 60 min
T1 construct: The recombinant protein was a truncation mutant containing only amino acids 94-312 of p53; made in house; host or cells: E. coli
How it was run: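 Stabilization of the mutant is inferred from increased binding of His-tagged p53 Y220C to a biotin-labeled consensus DNA, detected by HTRF with europium-streptavidin and APC-anti-His antibody. The concentration giving a 50% rise over compound-free binding is reported as SC150.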

T1 sequence (P04637 94-312, change not shown): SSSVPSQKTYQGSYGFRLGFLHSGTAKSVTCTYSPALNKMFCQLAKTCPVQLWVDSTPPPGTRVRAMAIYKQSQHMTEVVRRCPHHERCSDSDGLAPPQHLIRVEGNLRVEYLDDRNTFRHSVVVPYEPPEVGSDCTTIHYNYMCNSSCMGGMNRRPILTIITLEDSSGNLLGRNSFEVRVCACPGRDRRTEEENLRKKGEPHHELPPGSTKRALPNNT

SC150 (concentration of the compound required to increase the DNA binding activity by 50%), + (+ = 0 μM ≤ SC150 < 0.05 μM):
NS(=O)(=O)c1ccc(NCC#Cc2cc3c(N[C@H]4CC[C@H](N5CCOCC5)CC4)cccc3n2CC(F)(F)F)c(OCF)c1 [Compound 344A, 3-(fluoromethoxy)-4-{[3-(4-{[(1R,4R)-4-(morpholin-4-yl)cyclohexyl]amino}-1-(2,2,2-trifluoroethyl)-1H-indol-2-yl)prop-2-yn-1-yl]amino}benzene-1-sulfonamide]
CCOc1cc(S(C)(=O)=O)ccc1NCC#Cc1cc2c(N[C@H]3CC[C@H](N4CCOCC4)CC3)cccc2n1CC(F)(F)F [Compound 346A, 2-(3-((2-ethoxy-4-(methylsulfonyl)phenyl)amino)prop-1-yn-1-yl)-N-((1R,4R)-4-morpholinocyclohexyl)-1-(2,2,2-trifluoroethyl)-1H-indol-4-amine]
COc1cc(S(C)(=O)=O)ccc1NCC#Cc1cc2c(N[C@H]3CC[C@H](N4CCCC(OC)C4)CC3)cccc2n1CC(F)(F)F (stereo partly drawn) [Compound 348A, 2-{3-[(4-methane-sulfonyl-2-methoxy-phenyl)amino]prop-1-yn-1-yl}-N-[(1R,4R)-4-(3-methoxypiperidin-1-yl)cyclohexyl]-1-(2,2,2-trifluoroethyl)-1H-indol-4-amine]
COc1cc(S(C)(=O)=O)ccc1NCC#Cc1cc2c(N[C@H]3CC[C@H](N4CCC(OC)CC4)CC3)cccc2n1CC(F)(F)F [Compound 350A, 2-{3-[(4-methane-sulfonyl-2-methoxy-phenyl)amino]prop-1-yn-1-yl}-N-[(1R,4R)-4-(4-methoxypiperidin-1-yl)cyclohexyl]-1-(2,2,2-trifluoroethyl)-1H-indol-4-amine]
CNC(=O)c1ccc(NCC#Cc2cc3c(N[C@H]4CC[C@H](N5CCC(OC)CC5)CC4)cccc3n2CC(F)(F)F)c(OC)c1 [Compound 352A, 3-methoxy-N-methyl-4-{[3-(4-{[(1R,4R)-4-(4-methoxypiperidin-1-yl)cyclohexyl]amino}-1-(2,2,2-trifluoroethyl)-1H-indol-2-yl)prop-2-yn-1-yl]amino}benzamide]
COc1cc(S(N)(=O)=O)ccc1NCC#Cc1cc2c(N[C@H]3CC[C@H](N4CCC(OC)CC4)CC3)cccc2n1CC(F)(F)F [Compound 354A, 3-methoxy-4-{[3-(4-{[(1R,4R)-4-(4-methoxypiperidin-1-yl)cyclohexyl]amino}-1-(2,2,2-trifluoroethyl)-1H-indol-2-yl)prop-2-yn-1-yl]amino}benzene-1-sulfonamide]
CNC(=O)c1ccc(NCC#Cc2cc3c(N[C@H]4CC[C@H](N5CCCC(OC)C5)CC4)cccc3n2CC(F)(F)F)c(OC)c1 (stereo partly drawn) [Compound 356A, 3-methoxy-N-methyl-4-{[3-(4-{[(1R,4R)-4-(3-methoxypiperidin-1-yl)cyclohexyl]amino}-1-(2,2,2-trifluoroethyl)-1H-indol-2-yl)prop-2-yn-1-yl]amino} benzamide]
COc1cc(S(N)(=O)=O)ccc1NCC#Cc1cc2c(N[C@H]3CC[C@H](N4CCCC(OC)C4)CC3)cccc2n1CC(F)(F)F (stereo partly drawn) [Compound 358A, 3-methoxy-4-{[3-(4-{[(1R,4R)-4-(3-methoxypiperidin-1-yl)cyclohexyl]amino}-1-(2,2,2-trifluoroethyl)-1H-indol-2-yl)prop-2-yn-1-yl]amino}benzene-1-sulfonamide]
COc1cc(S(C)(=O)=O)ccc1NCC#Cc1cc2c(N[C@H]3CC[C@H](N4CCS(=O)(=O)CC4)CC3)cccc2n1CC(F)(F)F [Compound 362A, 4-[(1R,4R)-4-[(2-{3-[(4-methanesulfonyl-2-methoxyphenyl)amino]prop-1-yn-1-yl}-1-(2,2,2-trifluoroethyl)-1H-indol-4-yl)amino]cyclohexyl]-1λ^6-thiomorpholine-1,1-dione]
COc1cc(S(C)(=O)=O)ccc1NCC#Cc1cc2c(N[C@H]3CC[C@H](N4CC[S+]([O-])CC4)CC3)cccc2n1CC(F)(F)F [Compound 364A, 4-[(1R,4R)-4-[(2-{3-[(4-methanesulfonyl-2-methoxyphenyl)amino]prop-1-yn-1-yl}-1-(2,2,2-trifluoroethyl)-1H-indol-4-yl)amino]cyclohexyl]-1λ^4-thiomorpholin-1-one]
CNC(=O)c1ccc(NCC#Cc2cc3c(N[C@H]4CC[C@H](N5CC[S+]([O-])CC5)CC4)cccc3n2CC(F)(F)F)c(OC)c1 [Compound 369A, 3-methoxy-N-methyl-4-{[3-(4-{[(1R,4R)-4-(1-oxo-1λ^4-thiomorpholin-4-yl)cyclohexyl]amino}-1-(2,2,2-trifluoroethyl)-1H-indol-2-yl)prop-2-yn-1-yl]amino}benzamide]
COc1cc(S(N)(=O)=O)ccc1NCC#Cc1cc2c(N[C@H]3CC[C@H](N4CC[S+]([O-])CC4)CC3)cccc2n1CC(F)(F)F [Compound 370A, 3-methoxy-4-{[3-(4-{[(1R,4R)-4-(1-oxo-1λ^4-thiomorpholin-4-yl)cyclohexyl]amino}-1-(2,2,2-trifluoro-ethyl)-1H-indol-2-yl)prop-2-yn-1-yl]amino} benzene-1-sulfonamide]
COc1cc(S(N)(=O)=O)ccc1NCC#Cc1cc2c(N[C@H]3CC[C@H](N4CCS(=O)(=O)CC4)CC3)cccc2n1CC(F)(F)F [Compound 372A, 3-methoxy-4-{[3-(4-{[(1R,4R)-4-(1,1-dioxo-1λ^6-thiomorpholin-4-yl)cyclohexyl]amino}-1-(2,2,2-trifluoroethyl)-1H-indol-2-yl)prop-2-yn-1-yl]amino}benzene-1-sulfonamide]
COc1cc(S(C)(=O)=O)ccc1NCC#Cc1cc2c(N[C@H]3CC[C@@H](N4CCC5(CC4)COC5)CC3)cccc2n1CC(F)(F)F [Compound 374A, 2-{3-[(4-methane-sulfonyl-2-methoxy-phenyl)amino]prop-1-yn-1-yl}-N-[(1S,4S)-4-{2-oxa-7-azaspiro[3.5]nonan-7-yl}cyclohexyl]-1-(2,2,2-trifluoroethyl)-1H-indol-4-amine]
CNC(=O)c1ccc(NCC#Cc2cc3c(N[C@H]4CC[C@H](N5CCC6(CC5)COC6)CC4)cccc3n2CC(F)(F)F)c(OC)c1 [Compound 375A, 3-methoxy-N-methyl-4-{[3-(4-{[(1R,4R)-4-{2-oxa-7-azaspiro[3.5]nonan-7-yl}cyclohexyl]amino}-1-(2,2,2-trifluoroethyl)-1H-indol-2-yl)prop-2-yn-1-yl]amino}benzamide]
CNC(=O)c1ccc(NCC#Cc2cc3c(N[C@H]4CC[C@@H](N5CCC6(CC5)COC6)CC4)cccc3n2CC(F)(F)F)c(OC)c1 [Compound 376A, 3-methoxy-N-methyl-4-{[3-(4-{[(1S,4S)-4-{2-oxa-7-azaspiro[3.5]nonan-7-yl}cyclohexyl]amino}-1-(2,2,2-trifluoroethyl)-1H-indol-2-yl)prop-2-yn-1-yl]amino}benzamide]
COc1cc(S(N)(=O)=O)ccc1NCC#Cc1cc2c(N[C@H]3CC[C@H](N4CCC5(CC4)COC5)CC3)cccc2n1CC(F)(F)F [Compound 377A, 3-methoxy-4-{[3-(4-{[(1R,4R)-4-{2-oxa-7-azaspiro[3.5]nonan-7-yl}cyclohexyl]amino}-1-(2,2,2-trifluoroethyl)-1H-indol-2-yl)prop-2-yn-1-yl]amino}benzene-1-sulfonamide]
N#CCOc1cc(S(N)(=O)=O)ccc1NCC#Cc1cc2c(N[C@H]3CC[C@H](N4CCC5(CC4)COC5)CC3)cccc2n1CC(F)(F)F [Compound 379A, 3-(cyanomethoxy)-4-{[3-(4-{[(1R,4R)-4-{2-oxa-7-azaspiro[3.5]nonan-7-yl}cyclohexyl]amino}-1-(2,2,2-trifluoroethyl)-1H-indol-2-yl)prop-2-yn-1-yl]amino}benzene-1-sulfonamide]
NS(=O)(=O)c1ccc(NCC#Cc2cc3c(N[C@H]4CC[C@H](N5CCC6(CC5)COC6)CC4)cccc3n2CC(F)(F)F)c(OCF)c1 [Compound 381A, 3-(fluoromethoxy)-4-{[3-(4-{[(1R,4R)-4-{2-oxa-7-azaspiro[3.5]nonan-7-yl}cyclohexyl]amino}-1-(2,2,2-trifluoroethyl)-1H-indol-2-yl)prop-2-yn-1-yl]amino}benzene-1-sulfonamide]
COc1cc(S(C)(=O)=O)ccc1NCC#Cc1cc2c(N[C@H]3CC[C@H](N4CCC5(CCO5)CC4)CC3)cccc2n1CC(F)(F)F [Compound 383A, 2-{3-[(4-methane-sulfonyl-2-methoxy-phenyl)amino]prop-1-yn-1-yl}-N-[(1R,4R)-4-{1-oxa-7-azaspiro[3.5]nonan-7-yl}cyclohexyl]-1-(2,2,2-trifluoroethyl)-1H-indol-4-amine]
